Our source for the IC50 values is patent US11505548B2, “Heterocyclic compounds and their use for treatment of helminthic infections and diseases” (Celgene Corporation, priority 2019, dated 2022).

Molecules are shown by their SMILES. Where two headings read alike, the source gives them in different places.

This experiment concerns Onchocerca gutturosa Adult Male Worms. Description: Onchocerciasis in vitro screening model, worm motility score. In kind it is cell-based. The settings on record: read-out: O. gutturosa activity level (IC50 or MED).
Setting [1] is: in vitro, Onchocerca gutturosa adult male worms, class A/B/C.
Where [2] appears, read: Onchocerca gutturosa, Table 1 O. gutturosa, levels A/B/C, motility or MTT readout not specified.

Broadly, the IC50 is the concentration that gives 50% inhibition. On to `Cc1cccnc1Nc1nc(-c2cc(C(C)C)c(C(=O)N(C)C)cn2)ns1` [Compound 230, 4-isopropyl-N,N-dimethyl-6-(5-(3-methyl-pyridin-2-ylamino)-1,2,4-thiadiazol-3-yl)nicotinamide], for which, under setting [1], the concentration for half-maximal inhibition (IC50) fell in the range of 500 to 5000 nM.

For the molecule `COc1cnc(-c2nnc(Nc3ncccc3N(C)C)o2)cn1` [Compound 158, N2-(5-(5-methoxy-pyrazin-2-yl)-1,3,4-oxadiazol-2-yl)-N3,N3-dimethyl-pyridine-2,3-diamine], the IC50 under setting [2] was 500 to 5000 nM.

Take `CC(C)Oc1ccc(-c2nsc(Nc3ncccc3S(=O)(=O)N(C)C)n2)nc1` [Compound 321, 2-(3-(5-isoprop-oxypyridin-2-yl)-1,2,4-thiadiazol-5-ylamino)-N,N-dimethyl-pyridine-3-sulfonamide]: the IC50 under setting [1] lay within 500 to 5000 nM.

As to `CN1CC(S(=O)(=O)c2ccc(-c3nsc(Nc4ncccc4N(C)C)n3)nc2)C1` [Compound 141, N3,N3-dimethyl-N2-(3-(5-(1-methylazetidin-3-ylsulfonyl)pyridin-2-yl)-1,2,4-thiadiazol-5-yl)pyridine-2,3-diamine], the IC50 under setting [2] fell in the range of 500 to 5000 nM.

For the molecule `CC(C)Oc1ccc(-c2nsc(Nc3ncccc3C(F)(F)F)n2)nc1` [Compound 54, 3-(5-isopropoxy-pyridin-2-yl)-N-(3-(trifluoromethyl)pyridin-2-yl)-1,2,4-thiadiazol-5-amine], the IC50 under setting [2] is less than 200 nM.

Turning to `c1ccc(-c2ccnc(Nc3nc(-c4ccccn4)ns3)c2)cc1` [Compound 237, N-(4-phenyl-pyridin-2-yl)-3-(pyridin-2-yl)-1,2,4-thiadiazol-5-amine], the half-inhibitory concentration (IC50) under setting [1] fell in the range of 500 to 5000 nM.

In the case of `Cc1cccnc1Nc1nc(-c2ccc(OC3CCOCC3)cn2)no1` [Compound 16, N-(3-methyl-pyridin-2-yl)-3-(5-(tetrahydro-2H-pyran-4-yloxy)pyridin-2-yl)-1,2,4-oxadiazol-5-amine], the IC50 under setting [2] was less than 200 nM.

Take `CC(C)Oc1ccc(-c2nsc(Nc3ncccc3C(N)=O)n2)nc1` [Compound 164, 2-(3-(5-isoprop-oxypyridin-2-yl)-1,2,4-thiadiazol-5-ylamino) nicotinamide]: under setting [2], the IC50 was in the range of 500 to 5000 nM.

Take `CC(C)Oc1cnc(-c2nsc(Nc3ncccc3N3CCCC3=O)n2)cc1C(=O)N(C)C` [Compound 194, 5-isopropoxy-N,N-dimethyl-2-(5-(3-(2-oxopyrrolidin-1-yl)pyridin-2-ylamino)-1,2,4-thiadiazol-3-yl)isonicotin-amide]: under setting [2], the IC50 is 500 to 5000 nM.

On to `CC(C)c1cccnc1Nc1nc(-c2ccc(O[C@@H]3CCN(C4CC4)C[C@@H]3F)cn2)ns1` [Compound 89, 3-(5-((3S,4R)-1-cyclopropyl-3-fluoro-piperidin-4-yloxy)pyridin-2-yl)-N-(3-isopropylpyridin-2-yl)-1,2,4-thiadiazol-5-amine], for which the IC50 under setting [2] is less than 200 nM.

Consider `CC(=O)N(C)c1cc(C(F)(F)F)cnc1Nc1nc(-c2ccc(OC3COC3)cn2)ns1` [Compound 329, N-methyl-N-(2-(3-(5-(oxetan-3-yloxy)pyridin-2-yl)-1,2,4-thiadiazol-5-ylamino)-5-(trifluoromethyl)pyridin-3-yl)acetamide], for which the IC50 under setting [1] lay in the range of 500 to 5000 nM.

As for `CC(C)Oc1ccnc(-c2nc(Nc3cc(C(F)(F)F)c(C(C)C)cn3)nn2C)c1` [Compound 146, N-(5-(4-isoprop-oxypyridin-2-yl)-1-methyl-1H-1,2,4-triazol-3-yl)-5-isopropyl-4-(trifluoro-methyl) pyridin-2-amine], under setting [2], the IC50 lay within 500 to 5000 nM.

As for `c1ccc(-c2ccnc(Nc3nnc(-c4ccccn4)o3)c2)cc1` [Compound 235, N-(4-phenyl-pyridin-2-yl)-5-(pyridin-2-yl)-1,3,4-oxadiazol-2-amine], the half-inhibitory concentration (IC50) under setting [1] fell in the range of 500 to 5000 nM.

Consider `Cc1cccnc1Nc1nc(-c2ccc(C(=O)NCC(F)(F)F)cn2)ns1` [Compound 60, 6-(5-(3-methyl-pyridin-2-ylamino)-1,2,4-thiadiazol-3-yl)-N-(2,2,2-trifluoroethyl) nicotinamide], for which the half-maximal inhibitory concentration (IC50) under setting [2] fell in the range of 500 to 5000 nM.

For `COc1cccnc1-c1nsc(Nc2cc(C(F)(F)F)c(C(C)C)cn2)n1` [Compound 210, N-(5-isopropyl-4-(trifluoromethyl)pyridin-2-yl)-3-(3-methoxy-pyridin-2-yl)-1,2,4-thiadiazol-5-amine], the IC50 under setting [1] lay in the range of 200 to 500 nM.

Take `CC(=O)N(C)c1cc(C(F)(F)F)cnc1Nc1nc(-c2ccc(OC(C)C)nn2)ns1` [Compound 314, N-(2-(3-(6-isopropoxy-pyridazin-3-yl)-1,2,4-thiadiazol-5-ylamino)-5-(trifluoromethyl)pyridin-3-yl)-N-methylacetamide]: the half-inhibitory concentration (IC50) under setting [1] lay within 500 to 5000 nM.

Take `CC(C)c1ccnc(-c2nsc(Nc3ncccc3N(C)C(=O)C3CC3)n2)c1` [Compound 217, N-(2-(3-(4-isopropylpyridin-2-yl)-1,2,4-thiadiazol-5-ylamino)pyridin-3-yl)-N-methylcyclo-propanecarbox-amide]: the IC50 under setting [1] fell in the range of 200 to 500 nM.

`CNc1nccnc1Nc1nc(-c2cc3ccn(C(C)C)c3cn2)ns1` [Compound 303, N2-(3-(1-isopropyl-1H-pyrrolo[2,3-c]pyridin-5-yl)-1,2,4-thiadiazol-5-yl)-N3-methylpyrazine-2,3-diamine]: the IC50 under setting [1] was less than 200 nM.

Consider `CC(C)Oc1ccc(-c2n[nH]c(Nc3ncccc3C(F)(F)F)n2)nc1` [Compound 70, N-(3-(5-isopropoxy-pyridin-2-yl)-1H-1,2,4-triazol-5-yl)-3-(trifluoromethyl) pyridin-2-amine], for which the concentration for half-maximal inhibition (IC50) under setting [2] is 500 to 5000 nM.

Regarding `Cc1cccnc1Nc1nc(-c2ccc(S(C)(=O)=O)cn2)ns1` [Compound 79, N-(3-methyl-pyridin-2-yl)-3-(5-(methyl-sulfonyl)pyridin-2-yl)-1,2,4-thiadiazol-5-amine], under setting [2], the IC50 fell in the range of 500 to 5000 nM.

Take `Cc1cccnc1-c1nsc(Nc2ccc(C3CCN(C)CC3)cn2)n1` [Compound 49, N-(5-(1-methyl-piperidin-4-yl)pyridin-2-yl)-3-(3-methylpyridin-2-yl)-1,2,4-thiadiazol-5-amine]: the IC50 under setting [2] lay in the range of 500 to 5000 nM.

As to `FC(F)(F)c1ccnc(Nc2nc(-c3cc(C4CC4)ccn3)ns2)c1` [Compound 85, 3-(4-cyclopropyl-pyridin-2-yl)-N-(4-(trifluoromethyl)pyridin-2-yl)-1,2,4-thiadiazol-5-amine], the IC50 under setting [2] is less than 200 nM.

In the case of `Cc1cccnc1Nc1nc(-c2ccc(OC3CCN(CC4CC4)CC3)cn2)ns1` [Compound 75, 3-(5-(1-(cyclopropyl-methyl)piperidin-4-yloxy)pyridin-2-yl)-N-(3-methylpyridin-2-yl)-1,2,4-thiadiazol-5-amine], the IC50 under setting [2] was 200 to 500 nM.

As to `CC(C)c1ccnc(-c2nsc(Nc3cc(C(F)(F)F)ccn3)n2)c1` [Compound 86, 3-(4-isopropyl-pyridin-2-yl)-N-(4-(trifluoromethyl)pyridin-2-yl)-1,2,4-thiadiazol-5-amine], under setting [2], the IC50 was less than 200 nM.

For `FC(F)(F)c1ccc(Nc2nc(-c3cc(OC4CCCCC4)ccn3)ns2)nc1` [Compound 213, 3-(4-(cyclo-hexyloxy)pyridin-2-yl)-N-(5-(trifluoromethyl)pyridin-2-yl)-1,2,4-thiadiazol-5-amine], the IC50 under setting [1] was less than 200 nM.

Take `CC(C)Oc1ccc(-c2nsc(Nc3ncccc3C(=O)N3CCCC3)n2)nc1` [Compound 190, (2-(3-(5-isoprop-oxypyridin-2-yl)-1,2,4-thiadiazol-5-ylamino)pyridin-3-yl) (pyrrolidin-1-yl) methanone]: the IC50 under setting [2] was 200 to 500 nM.

In the case of `CC(=O)N(C)c1cccnc1Nc1nc(-c2ccc(OC3COC3)cn2)ns1` [Compound 326, N-methyl-N-(2-(3-(5-(oxetan-3-yloxy)pyridin-2-yl)-1,2,4-thiadiazol-5-ylamino)pyridin-3-yl)acetamide], the IC50 under setting [1] lay in the range of 500 to 5000 nM.

Consider `FC(F)(F)c1cccnc1Nc1nc(-c2cc(C3CC3)ccn2)ns1` [Compound 84, 3-(4-cyclopropyl-pyridin-2-yl)-N-(3-(trifluoromethyl)pyridin-2-yl)-1,2,4-thiadiazol-5-amine], for which the IC50 under setting [2] was less than 200 nM.

In the case of `c1ccc(-c2ccnc(Nc3nnc(-c4ccccn4)[nH]3)c2)cc1` [Compound 241, 4-phenyl-N-(5-(pyridin-2-yl)-4H-1,2,4-triazol-3-yl) pyridin-2-amine], the IC50 under setting [1] is less than 200 nM.

On to `Cc1cccnc1Nc1nc(-c2cnc(OC(C)C)cn2)ns1` [Compound 124, 3-(5-isopropoxy-pyrazin-2-yl)-N-(3-methyl-pyridin-2-yl)-1,2,4-thiadiazol-5-amine], for which, under setting [2], the half-maximal inhibitory concentration (IC50) lay within 200 to 500 nM.

As for `Cc1cccnc1Nc1nc(-c2cc(C(F)(F)F)c(OC3CC3)cn2)ns1` [Compound 102, 3-(5-cyclo-propoxy-4-(trifluoromethyl)pyridin-2-yl)-N-(3-methyl-pyridin-2-yl)-1,2,4-thiadiazol-5-amine], under setting [2], the half-inhibitory concentration (IC50) lay within 500 to 5000 nM.

Regarding `COc1cccnc1Nc1nc(-c2cc(C)ccn2)ns1` [Compound 24, N-(3-methoxy-pyridin-2-yl)-3-(4-methyl-pyridin-2-yl)-1,2,4-thiadiazol-5-amine], the IC50 under setting [2] was less than 200 nM.

Take `Cc1cccnc1Nc1nc(-c2ccc(S(=O)(=O)C3CCN(C)CC3)cn2)ns1` [Compound 100, 3-(5-(1-methylpiperidin-4-ylsulfonyl)pyridin-2-yl)-N-(3-methylpyridin-2-yl)-1,2,4-thiadiazol-5-amine]: under setting [2], the IC50 lay in the range of 200 to 500 nM.

Take `Cc1ccnc(Nc2nc(-c3ncccc3C(F)(F)F)ns2)c1` [Compound 13, N-(4-methyl-pyridin-2-yl)-3-(3-(trifluoro-methyl)pyridin-2-yl)-1,2,4-thiadiazol-5-amine]: the IC50 under setting [2] was 500 to 5000 nM.

Regarding `CN1CCc2cc(-c3nsc(Nc4ncccc4S(=O)(=O)N(C)C)n3)ncc21` [Compound 307, N,N-dimethyl-2-(3-(1-methyl-2,3-dihydro-1H-pyrrolo[2,3-c]pyridin-5-yl)-1,2,4-thiadiazol-5-ylamino) pyridine-3-sulfonamide], the IC50 under setting [1] lay within 500 to 5000 nM.

For `Cc1ccnc(-c2nsc(Nc3ncccc3C(F)(F)F)n2)c1` [Compound 37, 3-(4-methyl-pyridin-2-yl)-N-(3-(trifluoro-methyl)pyridin-2-yl)-1,2,4-thiadiazol-5-amine], the half-inhibitory concentration (IC50) under setting [2] is less than 200 nM.
